Measurements as given in publication PMC5976239 (Journal of medicinal chemistry, 2017).
≈ marks a conversion by molar mass, not a printed value. Where two headings read alike, the source gives them in different places.

What was measured:
[1] = system: Candida albicans ATCC 10231 (A); experiment: MIC determination by in vitro antifungal assay; assay type: cell-based; conditions: ATCC10231, 48 h, read-out: MIC (MIC-0)
[2] = system: C. albicans ATCC 64124(R) (B); experiment: MIC determination by in vitro antifungal assay; assay type: cell-based; conditions: Candida albicans, ATCC64124, 48 h
[3] = system: C. albicans ATCC 90819(R) (D); experiment: MIC determination by in vitro antifungal assay; assay type: cell-based; conditions: Candida albicans, ATCC90819, 48 h
[4] = system: C. albicans ATCC MYA-1003(R) (G); experiment: MIC determination by in vitro antifungal assay; assay type: cell-based; conditions: Candida albicans, 48 h, read-out: MIC (MIC-0)
[5] = system: Aspergillus nidulans ATCC 38163 (L); experiment: MIC determination against filamentous fungi; assay type: cell-based; conditions: ATCC38163, 48 h, read-out: MIC (MIC-0)
[6] = system: Aspergillus terreus ATCC MYA-3633 (M); experiment: MIC determination against filamentous fungi; assay type: cell-based; conditions: 48 h, read-out: MIC (MIC-0)
[7] = system: Candida albicans ATCC 10231 (A); experiment: MIC determination in the presence and absence of FBS; assay type: cell-based; conditions: for MIC: Candida albicans, ATCC10231, read-out: MIC, Candida albicans ATCC 10231 (A) (no FBS)
[8] = system: Aspergillus nidulans ATCC 38163 (L); experiment: as above; assay type: cell-based; conditions: ATCC38163, read-out: MIC, Aspergillus nidulans ATCC 38163 (L) (no FBS)
Hemolytic activity assay = assay type: cell-based; conditions: mouse, murine red blood cells (mRBCs)
HEK-293 = experiment: In vitro cytotoxicity assay; assay type: cell-based; conditions: 24 h, 18 and 20 at 7.8 µg/mL
A549 = experiment: In vitro cytotoxicity assay; assay type: cell-based; conditions: 24 h
BEAS-2B = experiment: In vitro cytotoxicity assay; assay type: cell-based; conditions: 24 h, 18 and 20 at 7.8 µg/mL
[9] = system: C. albicans ATCC 64124 (strain B) biofilms; experiment: Biofilm assay
[10] = system: C. albicans ATCC MYA-2876(S) (C); experiment: MIC determination by in vitro antifungal assay; assay type: cell-based; conditions: Candida albicans, 48 h
[11] = system: C. albicans ATCC MYA-2310(S) (E); experiment: MIC determination by in vitro antifungal assay; assay type: cell-based; conditions: Candida albicans, 48 h
[12] = system: C. albicans ATCC MYA-1237(R) (F); experiment: MIC determination by in vitro antifungal assay; assay type: cell-based; conditions: Candida albicans, 48 h, read-out: MIC (MIC-0)
[13] = system: Aspergillus flavus ATCC MYA-3631 (K); experiment: MIC determination against filamentous fungi; assay type: cell-based; conditions: 48 h, read-out: MIC (MIC-0)
[14] = system: C. albicans, non-albicans Candida, and Aspergillus strains; experiment: Antifungal activity over the panel of 13 fungal strains; assay type: cell-based; conditions: read-out: antifungal activity class based on MIC values
[15] = system: C. albicans ATCC 10231 (strain A); experiment: Membrane permeabilization assay using propidium iodide staining; assay type: cell-based, Candida albicans; conditions: 1 h at 35 °C; 20 and 26 at 4 × MIC, KANB (C14) at 2 × MIC ([…]), FLC at 7.8 µg/mL

Compound | MIC [1] | MIC ([2]; read-out: MIC (MIC-0)) | MIC ([3]; read-out: MIC (MIC-0)) | MIC [4] | MIC [5] | MIC [6] | MIC [7] | MIC [8] | hemolysis at 60 min, 7.8 µg/mL (Hemolytic activity assay) | toxicity to mammalian cells (in words) (HEK-293) | toxicity to mammalian cells (in words) (A549) | toxicity to mammalian cells (in words) (BEAS-2B) | increase in MIC in biofilms (SMIC50 and SMIC80 versus MIC in liquid cultures) [9] | propidium iodide (PI) dye uptake by fungal cells [15] | also measured
C[C@@H]1[C@H](O)[C@@H](C)/C=C/C=C/C=C/C=C/C=C/C=C/C=C/[C@H](O[C@@H]2O[C@H](C)[C@@H](O)[C@H](N)[C@@H]2O)C[C@@H]2O[C@](O)(C[C@@H](O)C[C@@H](O)[C@H](O)CC[C@@H](O)C[C@@H](O)CC(=O)O[C@H]1C)C[C@H](O)[C@H]2C(=O)O [AmB, amphotericin B, reference compound] | 3.9 µg/mL (≈ 4.22 µM) | 3.9 µg/mL (≈ 4.22 µM) | 0.975 µg/mL (≈ 1.06 µM) | 3.9 µg/mL (≈ 4.22 µM) | 3.9 µg/mL (≈ 4.22 µM) | 3.9 µg/mL (≈ 4.22 µM) | 3.9 µg/mL (≈ 4.22 µM) | 3.9 µg/mL (≈ 4.22 µM) |  |  |  |  |  |  | 
CCCCCCCCCCCCN1CCNCC1 [Compound 7] | 1.95 µg/mL (≈ 7.66 µM) |  |  |  | 1.95 µg/mL (≈ 7.66 µM) |  | 1.95 µg/mL (≈ 7.66 µM) | 1.95 µg/mL (≈ 7.66 µM) | 52% | toxic | toxic | toxic | 1–4 fold |  | 
CCCCCCCCCCCCCCN1CCNCC1 [Compound 9, 1-Tetradecyl Piperazine] | 0.975 µg/mL (≈ 3.45 µM) | 0.975 µg/mL (≈ 3.45 µM) | 1.95 µg/mL (≈ 6.9 µM) | 1.95 µg/mL (≈ 6.9 µM) | 0.975 µg/mL (≈ 3.45 µM) | 0.975 µg/mL (≈ 3.45 µM) | 0.975 µg/mL (≈ 3.45 µM) | 0.975 µg/mL (≈ 3.45 µM) | 93% | toxic | toxic | toxic | 16–64 fold |  | MIC ([10]; read-out: MIC (MIC-0)): 0.975 µg/mL (≈ 3.45 µM); MIC ([11]; read-out: MIC (MIC-0)): 0.975 µg/mL (≈ 3.45 µM); MIC [12]: 1.95 µg/mL (≈ 6.9 µM); MIC [13]: 0.975 µg/mL (≈ 3.45 µM); MIC [14]: 0.015 to 1.95 µg/mL (≈ 0.0531 to 6.9 µM)
CCCCCCCCN1CCN(CC(O)(Cn2cncn2)c2ccc(F)cc2F)CC1 (stereo not drawn) [Compound 18, 2-(2,4-Difluorophenyl)-1-(1H-1,2,4-triazol-1-yl)-3-(4-octylpiperazine)propan-2-ol] | 3.9 µg/mL (≈ 8.95 µM) | 31.3 µg/mL (≈ 71.9 µM) | 15.6 µg/mL (≈ 35.8 µM) | 0.975 to 31.3 µg/mL (≈ 2.24 to 71.9 µM) | 3.9 µg/mL (≈ 8.95 µM) | 3.9 µg/mL (≈ 8.95 µM) |  |  |  | some toxicity | nontoxic to A549 at up to 15.5 µg/mL | some toxicity |  |  | MIC ([10]; read-out: MIC (MIC-0)): 31.3 µg/mL (≈ 71.9 µM); MIC ([11]; read-out: MIC (MIC-0)): > 31.3 µg/mL; MIC [12]: 31.3 µg/mL (≈ 71.9 µM); MIC [13]: 1.95 µg/mL (≈ 4.48 µM); hemolysis at 60 min, 62.5 µg/mL (Hemolytic activity assay): < 10%
CCCCCCCCCCCCN1CCN(CC(O)(Cn2cncn2)c2ccc(Cl)cc2Cl)CC1 (stereo not drawn) [Compound 26, 2-(2,4-Dichlorophenyl)-1-(1H-1,2,4-triazol-1-yl)-3-(4-dodecylpiperazine)propan-2-ol] |  | 7.8 µg/mL (≈ 14.9 µM) |  |  |  |  |  |  | 85% |  |  |  | 2–4 fold | neither compound 20 nor 26 (at 4 × MIC) induced cellular uptake of PI dye | antifungal activity in the presence of FBS (in words) ([7]; strains A, J, and L, +10% FBS versus no FBS): retained their full antifungal activity
OC(Cn1cncn1)(Cn1cncn1)c1ccc(F)cc1F [FLC, fluconazole, reference compound] |  |  |  |  |  |  |  |  |  |  |  |  |  | did not allow for PI uptake | MIC ([2]; read-out: MIC (MIC-2)): > 125 µg/mL; MIC ([10]; read-out: MIC (MIC-2)): 15.6 µg/mL (≈ 50.9 µM); MIC ([3]; read-out: MIC (MIC-2)): > 125 µg/mL; MIC ([11]; read-out: MIC (MIC-2)): > 125 µg/mL
CCCCCCCCCCCCCCOC[C@H]1O[C@H](O[C@@H]2[C@@H](O)[C@H](O[C@H]3O[C@H](CN)[C@@H](O)[C@H](O)[C@H]3N)[C@@H](N)C[C@H]2N)[C@H](O)[C@@H](N)[C@@H]1O [KANB (C14), reference compound] |  |  |  |  |  |  |  |  |  |  |  |  |  | significantly increased PI dye uptake | 
